Measured values as given in paper doi:10.1101/362293v1 (biorxiv, 2018).
Numbering of substitutions follows the chain as printed.

Assays:
CobB [1] = target: T1, CobB (Escherichia coli, UniProt P75960, R8A); assay: isothermal titration calorimetry; format: binding
T1 sequence (P75960 1-279 R8A): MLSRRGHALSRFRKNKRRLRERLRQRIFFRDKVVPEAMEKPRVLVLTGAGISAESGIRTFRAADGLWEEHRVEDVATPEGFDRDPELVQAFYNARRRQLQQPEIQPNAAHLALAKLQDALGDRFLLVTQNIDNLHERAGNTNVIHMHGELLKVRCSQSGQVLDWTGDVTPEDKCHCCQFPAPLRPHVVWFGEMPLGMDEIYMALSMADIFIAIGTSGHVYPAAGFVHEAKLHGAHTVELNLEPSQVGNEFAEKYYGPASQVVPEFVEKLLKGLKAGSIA

CobB [2] = target: T2, CobB (Escherichia coli, UniProt P75960); assay: deacetylation of an acetylated peptide, HPLC; format: biochemical
T2 sequence (P75960 1-279): T1 sequence (P75960 1-279 R8A) with A8R

CobB [3] = target: T3, CobB (Escherichia coli, UniProt P75960, E21A); assay: isothermal titration calorimetry; format: binding
T3 sequence (P75960 1-279 E21A): T1 sequence (P75960 1-279 R8A) with A8R, E21A

CobB [4] = target: T2, CobB; assay: isothermal titration calorimetry; format: binding
[5] = target: T4, S. typhimurium CobB; CobB^S. typhimurium (Salmonella enterica, UniProt P0A2F2); assay: affinity measurement, method not given; format: binding
T4 sequence (P0A2F2 1-273): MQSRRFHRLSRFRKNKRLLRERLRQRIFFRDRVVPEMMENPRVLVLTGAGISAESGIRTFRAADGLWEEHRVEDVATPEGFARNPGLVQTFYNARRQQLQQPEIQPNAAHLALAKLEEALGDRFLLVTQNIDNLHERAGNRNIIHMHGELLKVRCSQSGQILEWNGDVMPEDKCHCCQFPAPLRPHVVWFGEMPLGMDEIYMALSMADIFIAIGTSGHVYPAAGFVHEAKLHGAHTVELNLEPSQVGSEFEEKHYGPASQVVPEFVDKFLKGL

CobB [6] = target: T5, CobB (Escherichia coli, UniProt P75960, R17A); assay: isothermal titration calorimetry; format: binding
T5 sequence (P75960 1-279 R17A): T1 sequence (P75960 1-279 R8A) with A8R, R17A

- Kd (CobB [1]): 1800 µM
- Ki (CobB [2]): 32.3 µM
- Kd (CobB [3]): 320 µM
- Kd (CobB [4]): 21.6 µM
- Kd [5]: 15.5 µM
- Kd (CobB [6]): 1600 µM
Compound: Nc1nc2c(ncn2[C@@H]2O[C@@H]3CO[P@](=O)(O)O[C@H]4[C@@H](O)[C@H](n5cnc6c(=O)[nH]c(N)nc65)O[C@@H]4CO[P@](=O)(O)O[C@H]3[C@H]2O)c(=O)[nH]1 [c-di-GMP]
